Assay results reported in patent publication US20260262643A1, “HERBICIDAL BENZOXAZINES” (FMC CORPORATION, priority 2022, published 2026).

Columns and labels:
green foxtail [1] = experiment: Test C preemergence; type: in vivo, Setaria viridis; details: 0 to 100 scale (0 no effect, 100 complete control); for Plant response rating, Foxtail, Green: Preemergence, 500 g ai/ha, visual rating after 10 days; for Foxtail, Green plant response rating: Test C, preemergence, 125 g ai/ha
Outline: (§1)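 Soil-applied (pre) and foliar (post, 1–2 leaf, 2–10 cm) sprays; surfactant-containing non-phytotoxic solvent vehicle; loam/sand substrate. Readout: visual % control at 10 d, greenhouse, versus untreated.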

ryegrass, Italian [2] = experiment: Test C postemergence; type: in vivo, Lolium multiflorum; details: 10 days
Outline: as §1

wheat [3] = experiment: Test C preemergence; type: in vivo, Triticum aestivum; details: 0 to 100 scale (0 no effect, 100 complete control); for Plant response rating, Wheat: Preemergence, 500 g ai/ha, visual rating after 10 days; for Wheat plant response rating: Test C, preemergence, 125 g ai/ha
Outline: as §1

ragweed [4] = experiment: Test C postemergence; type: in vivo, Ambrosia artemisiifolia; details: 10 days
Outline: as §1

ryegrass, Italian [5] = experiment: Test C preemergence; type: in vivo, Lolium multiflorum; details: 0 to 100 scale (0 no effect, 100 complete control); for Plant response rating, Ryegrass, Italian: Preemergence, 500 g ai/ha, visual rating after 10 days; for Ryegrass, Italian plant response rating: Test C, preemergence, 125 g ai/ha
Outline: as §1

sedge, umbrella = experiment: Test D flooded paddy test; type: in vivo, Cyperus difformis; details: 250 g ai/ha, applied to paddy water, visual rating after 13 to 14 days, scale 0 to 100 (0 no effect, 100 complete control)
Outline: (§2)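 Post-flood water application at the 2-leaf stage; 3 cm flood depth kept constant; visual control rating 0–100 after 13–14 days greenhouse growth.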

wheat [6] = experiment: Test C postemergence; type: in vivo, Triticum aestivum; details: 10 days
Outline: as §1

corn [7] = experiment: Test C preemergence; type: in vivo, Zea mays; details: 0 to 100 scale (0 no effect, 100 complete control); for Plant response rating, Corn: Preemergence, 500 g ai/ha, visual rating after 10 days; for Corn plant response rating: Test C, preemergence, 125 g ai/ha
Outline: as §1

ragweed [8] = experiment: Test C preemergence; type: in vivo, Ambrosia artemisiifolia; details: 0 to 100 scale (0 no effect, 100 complete control); for Plant response rating, Ragweed: Preemergence, 500 g ai/ha, visual rating after 10 days; for Ragweed plant response rating: Test C, preemergence, 125 g ai/ha
Outline: as §1

barnyardgrass [9] = experiment: Test C postemergence; type: in vivo, Echinochloa crusgalli; details: 10 days
Outline: as §1

blackgrass [10] = experiment: Test C postemergence; type: in vivo, Alopecurus myosuroides; details: 10 days
Outline: as §1

soybean [11] = experiment: Test C postemergence; type: in vivo, Glycine max; details: 10 days
Outline: as §1

green foxtail [12] = experiment: Test C postemergence; type: in vivo, Setaria viridis; details: 10 days
Outline: as §1

barnyardgrass [13] = experiment: Test C preemergence; type: in vivo, Echinochloa crusgalli; details: 0 to 100 scale (0 no effect, 100 complete control); for Plant response rating, Barnyardgrass: Preemergence, 500 g ai/ha, visual rating after 10 days; for Barnyardgrass plant response rating: Test C, preemergence, 125 g ai/ha
Outline: as §1

barnyardgrass [14] = experiment: Test D flooded paddy test; type: in vivo, Echinochloa crus-galli; details: 250 g ai/ha, applied to paddy water, visual rating after 13 to 14 days, scale 0 to 100 (0 no effect, 100 complete control)
Outline: as §2

soybean [15] = experiment: Test C preemergence; type: in vivo, Glycine max; details: 0 to 100 scale (0 no effect, 100 complete control); for Plant response rating, Soybean: Preemergence, 500 g ai/ha, visual rating after 10 days; for Soybean plant response rating: Test C, preemergence, 125 g ai/ha
Outline: as §1

ducksalad = experiment: Test D flooded paddy test; type: in vivo, Heteranthera limosa; details: 250 g ai/ha, applied to paddy water, visual rating after 13 to 14 days, scale 0 to 100 (0 no effect, 100 complete control)
Outline: as §2

kochia [16] = experiment: Test C postemergence; type: in vivo, Bassia scoparia; details: 10 days
Outline: as §1

rice = experiment: Test D flooded paddy test; type: in vivo, Oryza sativa; details: 250 g ai/ha, applied to paddy water, visual rating after 13 to 14 days, scale 0 to 100 (0 no effect, 100 complete control)
Outline: as §2

oat, wild [17] = experiment: Test C postemergence; type: in vivo, Avena fatua; details: 10 days
Outline: as §1

pigweed, palmer [18] = experiment: Test C postemergence; type: in vivo, Amaranthus palmeri; details: 10 days
Outline: as §1

pigweed, palmer [19] = experiment: Test C preemergence; type: in vivo, Amaranthus palmeri; details: 0 to 100 scale (0 no effect, 100 complete control); for Plant response rating, Pigweed, Palmer: Preemergence, 500 g ai/ha, visual rating after 10 days; for Pigweed, Palmer plant response rating: Test C, preemergence, 125 g ai/ha
Outline: as §1

oat, wild [20] = experiment: Test C preemergence; type: in vivo, Avena fatua; details: 0 to 100 scale (0 no effect, 100 complete control); for Plant response rating, Oat, Wild: Preemergence, 500 g ai/ha, visual rating after 10 days; for Oat, Wild plant response rating: Test C, preemergence, 125 g ai/ha
Outline: as §1

kochia [21] = experiment: Test C preemergence; type: in vivo, Bassia scoparia; details: 0 to 100 scale (0 no effect, 100 complete control); for Plant response rating, Kochia: Preemergence, 500 g ai/ha, visual rating after 10 days; for Kochia plant response rating: Test C, preemergence, 125 g ai/ha
Outline: as §1

corn [22] = experiment: Test C postemergence; type: in vivo, Zea mays; details: 10 days
Outline: as §1

horseweed = experiment: Test C postemergence; type: in vivo, Erigeron canadensis; details: 10 days
Outline: as §1

blackgrass [23] = experiment: Test C preemergence; type: in vivo, Alopecurus myosuroides; details: 0 to 100 scale (0 no effect, 100 complete control); for Plant response rating, Blackgrass: Preemergence, 500 g ai/ha, visual rating after 10 days; for Blackgrass plant response rating: Test C, preemergence, 125 g ai/ha
Outline: as §1

[24] = 125 g ai/ha, postemergence, 0 to 100 scale, 0 no effect, 100 complete control
[25] = Postemergence, 500 g ai/ha, visual 0 to 100 scale (0 no effect, 100 complete control)

COc1cc(C(=O)N2C[C@H](C)Oc3c(Cl)cccc32)cc(-n2cnc(C3CC3)n2)c1 [Compound 216]
Plant response rating, Foxtail, Green (green foxtail [1]): 100 | Foxtail, Green plant response rating (green foxtail [1]): 100 | Plant response rating, Ryegrass, Italian (ryegrass, Italian [2]; [24]): 20 | Plant response rating, Ryegrass, Italian (ryegrass, Italian [2]; [25]): 60 | Plant response rating, Wheat (wheat [3]): 20 | Wheat plant response rating (wheat [3]): 0 | Plant response rating, Ragweed (ragweed [4]; [24]): 60 | Plant response rating, Ragweed (ragweed [4]; [25]): 80 | Plant response rating, Ryegrass, Italian (ryegrass, Italian [5]): 90 | Ryegrass, Italian plant response rating (ryegrass, Italian [5]): 80 | Plant response rating, Sedge, Umbrella (Flood) (sedge, umbrella): 95 | Plant response rating, Wheat (wheat [6]; [24]): 20 | Plant response rating, Wheat (wheat [6]; [25]): 30 | Plant response rating, Corn (corn [7]): 30 | Corn plant response rating (corn [7]): 0 | Plant response rating, Ragweed (ragweed [8]): 40 | Ragweed plant response rating (ragweed [8]): 0 | Plant response rating, Barnyardgrass (barnyardgrass [9]; [24]): 10 | Plant response rating, Barnyardgrass (barnyardgrass [9]; [25]): 60 | Plant response rating, Blackgrass (blackgrass [10]; [24]): 30 | Plant response rating, Blackgrass (blackgrass [10]; [25]): 100 | Plant response rating, Soybean (soybean [11]; [24]): 100 | Plant response rating, Soybean (soybean [11]; [25]): 100 | Plant response rating, Foxtail, Green (green foxtail [12]; [24]): 70 | Plant response rating, Foxtail, Green (green foxtail [12]; [25]): 90 | Plant response rating, Barnyardgrass (barnyardgrass [13]): 90 | Barnyardgrass plant response rating (barnyardgrass [13]): 40 | Plant response rating, Barnyardgrass (Flood) (barnyardgrass [14]): 40 | Plant response rating, Soybean (soybean [15]): 100 | Soybean plant response rating (soybean [15]): 50 | Plant response rating, Ducksalad (Flood) (ducksalad): 100 | Plant response rating, Kochia (kochia [16]; [24]): 80 | Plant response rating, Kochia (kochia [16]; [25]): 90 | Plant response rating, Rice (Flood) (rice): 10 | Plant response rating, Oat, Wild (oat, wild [17]; [24]): 20 | Plant response rating, Oat, Wild (oat, wild [17]; [25]): 20 | Plant response rating, Pigweed, Palmer (pigweed, palmer [18]; [24]): 80 | Plant response rating, Pigweed, Palmer (pigweed, palmer [18]; [25]): 90 | Plant response rating, Pigweed, Palmer (pigweed, palmer [19]): 100 | Pigweed, Palmer plant response rating (pigweed, palmer [19]): 100 | Plant response rating, Oat, Wild (oat, wild [20]): 40 | Oat, Wild plant response rating (oat, wild [20]): 0 | Plant response rating, Kochia (kochia [21]): 100 | Kochia plant response rating (kochia [21]): 70 | Plant response rating, Corn (corn [22]; [24]): 10 | Plant response rating, Corn (corn [22]; [25]): 20 | Plant response rating, Horseweed (horseweed; [24]): 0 | Plant response rating, Horseweed (horseweed; [25]): 50 | Plant response rating, Blackgrass (blackgrass [23]): 90 | Blackgrass plant response rating (blackgrass [23]): 20

Cc1ccc(-n2cnc(CS(C)(=O)=O)n2)cc1C(=O)N1C[C@H](C)Oc2c(Cl)cccc21 [Compound 225]
Plant response rating, Foxtail, Green (green foxtail [1]): 100 | Foxtail, Green plant response rating (green foxtail [1]): 100 | Plant response rating, Ryegrass, Italian (ryegrass, Italian [2]; [24]): 70 | Plant response rating, Ryegrass, Italian (ryegrass, Italian [2]; [25]): 90 | Plant response rating, Wheat (wheat [3]): 80 | Wheat plant response rating (wheat [3]): 20 | Plant response rating, Ragweed (ragweed [4]; [24]): 90 | Plant response rating, Ragweed (ragweed [4]; [25]): 90 | Plant response rating, Ryegrass, Italian (ryegrass, Italian [5]): 80 | Ryegrass, Italian plant response rating (ryegrass, Italian [5]): 60 | Plant response rating, Sedge, Umbrella (Flood) (sedge, umbrella): 100 | Plant response rating, Wheat (wheat [6]; [24]): 30 | Plant response rating, Wheat (wheat [6]; [25]): 90 | Plant response rating, Corn (corn [7]): 90 | Corn plant response rating (corn [7]): 20 | Plant response rating, Ragweed (ragweed [8]): 90 | Ragweed plant response rating (ragweed [8]): 70 | Plant response rating, Barnyardgrass (barnyardgrass [9]; [24]): 20 | Plant response rating, Barnyardgrass (barnyardgrass [9]; [25]): 70 | Plant response rating, Blackgrass (blackgrass [10]; [24]): 50 | Plant response rating, Blackgrass (blackgrass [10]; [25]): 90 | Plant response rating, Soybean (soybean [11]; [24]): 100 | Plant response rating, Soybean (soybean [11]; [25]): 100 | Plant response rating, Foxtail, Green (green foxtail [12]; [24]): 20 | Plant response rating, Foxtail, Green (green foxtail [12]; [25]): 90 | Plant response rating, Barnyardgrass (barnyardgrass [13]): 100 | Barnyardgrass plant response rating (barnyardgrass [13]): 50 | Plant response rating, Barnyardgrass (Flood) (barnyardgrass [14]): 25 | Plant response rating, Soybean (soybean [15]): 90 | Soybean plant response rating (soybean [15]): 80 | Plant response rating, Ducksalad (Flood) (ducksalad): 100 | Plant response rating, Kochia (kochia [16]; [24]): 80 | Plant response rating, Kochia (kochia [16]; [25]): 90 | Plant response rating, Rice (Flood) (rice): 15 | Plant response rating, Oat, Wild (oat, wild [17]; [24]): 60 | Plant response rating, Oat, Wild (oat, wild [17]; [25]): 70 | Plant response rating, Pigweed, Palmer (pigweed, palmer [18]; [24]): 90 | Plant response rating, Pigweed, Palmer (pigweed, palmer [18]; [25]): 100 | Plant response rating, Pigweed, Palmer (pigweed, palmer [19]): 100 | Pigweed, Palmer plant response rating (pigweed, palmer [19]): 100 | Plant response rating, Oat, Wild (oat, wild [20]): 90 | Oat, Wild plant response rating (oat, wild [20]): 60 | Plant response rating, Kochia (kochia [21]): 100 | Kochia plant response rating (kochia [21]): 20 | Plant response rating, Corn (corn [22]; [24]): 80 | Plant response rating, Corn (corn [22]; [25]): 90 | Plant response rating, Horseweed (horseweed; [24]): 20 | Plant response rating, Horseweed (horseweed; [25]): 80 | Plant response rating, Blackgrass (blackgrass [23]): 80 | Blackgrass plant response rating (blackgrass [23]): 60
